Assay results taken from PMC11859928, “Design, Synthesis, and Antiproliferative Activity of Novel Indole/1,2,4-Triazole Hybrids as Tubulin Polymerization Inhibitors” (Pharmaceuticals, 2025).
Read-outs that look alike come from different tables or passages of the source.

Legend:
[1] = tested on: BT-549; test: NCI five-dose assay; type: cell-based, human; conditions: BT-549, Breast cancer
[2] = tested on: EKVX; test: NCI five-dose assay; type: cell-based, human; conditions: Non-small cell lung cancer
[3] = tested on: MDA-MB-468; test: NCI five-dose assay; type: cell-based, human; conditions: MDA-MB-468, Breast cancer
[4] = tested on: OVCAR-3; test: NCI five-dose assay; type: cell-based, human; conditions: OVCAR-3, Ovarian cancer
[5] = tested on: CAKI-1; test: NCI five-dose assay; type: cell-based, human; conditions: CAKI-1, Renal cancer
[6] = tested on: CNS cancer subpanel; test: NCI five-dose assay, subpanel mean; type: cell-based, human; conditions: Homo sapiens; average sensitivity of all cell lines of the CNS cancer subpanel; read-out: GI50 Subpanel MID b
[7] = tested on: K-562; test: NCI five-dose assay; type: cell-based, human; conditions: Homo sapiens, K562, K-562, Leukemia
[8] = tested on: HOP-62; test: NCI five-dose assay; type: cell-based, human; conditions: HOP-62, Non-small cell lung cancer
[9] = tested on: HCC-2998; test: NCI five-dose assay; type: cell-based, human; conditions: HCC-2998, Colon cancer
[10] = target: T1, tubulin (Sus scrofa, UniProt P02550+P02554); test: Tubulin polymerization inhibitory assay; type: biochemical
T1 construct: purchased Cytoskeleton Inc., Denver, CO, USA
Outline: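 Compound effects on tubulin polymerization were measured with the Tubulin Polymerization Assay Kit (Cytoskeleton Inc., Denver, CO, USA), run as the supplier instructs, which detects polymerization through enhancement of a fluorescent reporter. Docetaxel served as the stabilizing control and vincristine as the destabilizing control, each at 3 µM in PBS.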

[11] = tested on: MCF7; test: NCI five-dose assay; type: cell-based, human; conditions: MCF7, Breast cancer
[12] = tested on: Renal cancer subpanel; test: NCI five-dose assay, subpanel mean; type: cell-based, human
[13] = tested on: OVCAR-8; test: NCI five-dose assay; type: cell-based, human; conditions: OVCAR-8, Ovarian cancer
[14] = tested on: Non-small cell lung cancer subpanel; test: NCI five-dose assay, subpanel mean; type: cell-based, human
[15] = tested on: SF-268; test: NCI five-dose assay; type: cell-based, human; conditions: Homo sapiens, SF-268, CNS cancer
[16] = tested on: HOP-92; test: NCI five-dose assay; type: cell-based, human; conditions: HOP-92, Non-small cell lung cancer
[17] = tested on: HS 578T; test: NCI five-dose assay; type: cell-based, human; conditions: Breast cancer
[18] = tested on: NCI-H226; test: NCI five-dose assay; type: cell-based, human; conditions: NCI-H226, Non-small cell lung cancer
[19] = tested on: NCI-H460; test: NCI five-dose assay; type: cell-based, human; conditions: NCI-H460, Non-small cell lung cancer
[20] = tested on: SNB-19; test: NCI five-dose assay; type: cell-based, human; conditions: SNB-19, CNS cancer
[21] = tested on: OVCAR-4; test: NCI five-dose assay; type: cell-based, human; conditions: OVCAR-4, Ovarian cancer
[22] = tested on: UACC-62; test: NCI five-dose assay; type: cell-based, human; conditions: UACC-62, Melanoma
[23] = tested on: Prostate cancer subpanel; test: NCI five-dose assay, subpanel mean; type: cell-based, human
[24] = tested on: T-47D; test: NCI five-dose assay; type: cell-based, human; conditions: Breast cancer
[25] = tested on: Colon cancer subpanel; test: NCI five-dose assay, subpanel mean; type: cell-based, human
[26] = Homo sapiens, 48 h, read-out: LC50 (the source's name)
[27] = Homo sapiens, read-out: GI50 Conc. per Cell Lines
[28] = 48 h, read-out: LC50 (the source's name)
[29] = read-out: GI50 Conc. per Cell Lines

T1 sequence (P02554 whole entry): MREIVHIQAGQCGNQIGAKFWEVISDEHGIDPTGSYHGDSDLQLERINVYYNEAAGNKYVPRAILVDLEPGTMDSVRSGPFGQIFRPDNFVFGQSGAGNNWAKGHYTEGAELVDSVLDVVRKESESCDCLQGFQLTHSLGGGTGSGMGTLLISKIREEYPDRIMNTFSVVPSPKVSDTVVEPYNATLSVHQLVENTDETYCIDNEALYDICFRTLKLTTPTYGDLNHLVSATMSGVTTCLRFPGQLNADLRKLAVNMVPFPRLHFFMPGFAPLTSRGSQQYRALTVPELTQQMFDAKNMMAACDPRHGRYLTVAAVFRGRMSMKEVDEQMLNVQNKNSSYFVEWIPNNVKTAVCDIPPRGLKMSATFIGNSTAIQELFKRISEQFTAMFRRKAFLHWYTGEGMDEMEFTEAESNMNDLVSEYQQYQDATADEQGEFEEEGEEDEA
T1 sequence (P02550 whole entry): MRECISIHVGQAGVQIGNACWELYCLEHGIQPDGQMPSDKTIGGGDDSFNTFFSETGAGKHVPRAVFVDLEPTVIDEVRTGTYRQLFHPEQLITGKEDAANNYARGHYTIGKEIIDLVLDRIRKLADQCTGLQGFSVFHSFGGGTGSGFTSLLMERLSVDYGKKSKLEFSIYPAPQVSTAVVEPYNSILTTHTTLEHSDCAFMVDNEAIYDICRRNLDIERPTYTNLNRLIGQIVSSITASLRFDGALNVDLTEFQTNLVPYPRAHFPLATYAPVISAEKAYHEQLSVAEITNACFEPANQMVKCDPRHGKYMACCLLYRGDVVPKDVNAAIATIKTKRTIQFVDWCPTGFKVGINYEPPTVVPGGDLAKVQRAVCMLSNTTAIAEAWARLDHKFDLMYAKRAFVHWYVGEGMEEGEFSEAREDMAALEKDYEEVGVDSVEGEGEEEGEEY

What does the source list for `O/N=C(\CSc1nnc(-c2c[nH]c3ccccc23)n1-c1ccccc1)c1ccc(Br)cc1` [Compound 7i, (Z)-2-((5-(1H-Indol-3-yl)-4-phenyl-4H-1,2,4-triazol-3-yl)thio)-1-(4-bromophenyl) Ethanone Oxime]?
TGI Conc. per Cell Lines [1]: 7.25 µM; CC50 [1, 26]: 34.2 µM; GI50 [1, 27]: 3.16 µM; CC50 [2, 26]: 34.2 µM; GI50 [2, 27]: 2.6 µM; TGI Conc. per Cell Lines [2]: 9.09 µM; LC50 ([3]; Homo sapiens, 48 h): 6.32 µM; GI50 [3, 27]: 1.72 µM; TGI Conc. per Cell Lines [3]: 3.30 µM; LC50 ([4]; Homo sapiens, 48 h): > 100 µM; GI50 [4, 27]: 4.98 µM; TGI Conc. per Cell Lines [4]: 23.8 µM; TGI Conc. per Cell Lines [5]: 8.10 µM; LC50 ([5]; Homo sapiens, 48 h): 38 µM; GI50 [5, 27]: 2.63 µM; GI50 [6]: 3.15 µM; CC50 [7, 28]: > 100 µM; GI50 [7, 29]: 2.22 µM; TGI Conc. per Cell Lines [8]: 3.98 µM; GI50 [8, 27]: 1.86 µM; TGI Conc. per Cell Lines [9]: 12.30 µM; CC50 [9, 26]: 35.8 µM; GI50 [9, 27]: 3.36 µM; %inhibition ([10]; conc 0.01 (unit not given; IC50 from this curve in µg/ml)): 6.76%; %inhibition ([10]; conc 0.1 (unit not given; IC50 from this curve in µg/ml)): 21%; %inhibition ([10]; conc 1 (unit not given; IC50 from this curve in µg/ml)): 47.4%; %inhibition ([10]; conc 10 (unit not given; IC50 from this curve in µg/ml)): 68.5%; %inhibition ([10]; conc 100 (unit not given; IC50 from this curve in µg/ml)): 87%; IC50 ([10]; read-out: Tub. IC50±SD (converted)): 3.03 µM; IC50 ([10]; read-out: Tubulin Inhibitory Effect, IC50): 3.03 ± 0.11 µM; LC50 ([11]; Homo sapiens, 48 h): 63.6 µM; GI50 [11, 27]: 3.49 µM; TGI Conc. per Cell Lines [11]: 15.3 µM; GI50 ([12]; Homo sapiens, average sensitivity of all cell lines of the Renal cancer subpanel, read-out: GI50 Subpanel MID b): 2.87 µM; GI50 Selectivity Ratio (MID a/MID b) ([12]; Renal cancer subpanel): 0.98; CC50 [13, 26]: > 100 µM; GI50 [13, 27]: 2.45 µM; TGI Conc. per Cell Lines [13]: 6.50 µM; GI50 ([14]; Homo sapiens, average sensitivity of all cell lines of the Non-small cell lung cancer subpanel, read-out: GI50 Subpanel MID b): 3.23 µM; GI50 Selectivity Ratio (MID a/MID b) ([14]; Non-small cell lung cancer subpanel): 0.87; CC50 [15, 28]: > 100 µM; GI50 [15, 29]: 2.37 µM; TGI Conc. per Cell Lines [16]: 24.10 µM; CC50 [16, 26]: > 100 µM; GI50 [16, 27]: 3.66 µM; TGI Conc. per Cell Lines [17]: 11.90 µM; LC50 ([17]; Homo sapiens, 48 h): > 100 µM; GI50 [17, 27]: 2.84 µM; CC50 [18, 26]: 51.4 µM; GI50 [18, 27]: 3.33 µM; TGI Conc. per Cell Lines [18]: 14.90 µM; CC50 [19, 26]: 68.4 µM; GI50 [19, 27]: 3.53 µM; TGI Conc. per Cell Lines [19]: 12.90 µM; CC50 [20, 26]: 84.5 µM; GI50 [20, 27]: 4.32 µM; TGI Conc. per Cell Lines [20]: 19.80 µM; GI50 [21, 27]: 2.14 µM; TGI Conc. per Cell Lines [21]: 4.57 µM; CC50 [22, 26]: 7.93 µM; GI50 [22, 27]: 1.77 µM; TGI Conc. per Cell Lines [22]: 3.74 µM; GI50 ([23]; Homo sapiens, average sensitivity of all cell lines of the Prostate cancer subpanel, read-out: GI50 Subpanel MID b): 2.1 µM; GI50 Selectivity Ratio (MID a/MID b) ([23]; Prostate cancer subpanel): 1.33; TGI Conc. per Cell Lines [24]: 17.20 µM; LC50 (concentration killing 50% of cells) ([24]; Homo sapiens, T47D, 48 h): > 100 µM; GI50 ([24]; Homo sapiens, T47D, read-out: GI50 Conc. per Cell Lines): 3.51 µM; GI50 Selectivity Ratio (MID a/MID b) ([25]; Colon cancer subpanel): 0.88; GI50 ([25]; Homo sapiens, average sensitivity of all cell lines of the Colon cancer subpanel, read-out: GI50 Subpanel MID b): 3.19 µM
